# Positions of bridges follow the written chain, without caps; N, C: chain ends. Non-standard residues stand in square brackets, D forms with d. Residues, ends and D or L forms follow the SMILES beside them. *: point of attachment. NEtPhe = CCN[C@@H](Cc1ccccc1)C(=O)O; NMeF = CN[C@@H](Cc1ccccc1)C(=O)O; NMeI = CC[C@H](C)[C@H](NC)C(=O)O; NMeL = CN[C@@H](CC(C)C)C(=O)O; Phg = N[C@H](C(=O)O)c1ccccc1; NMeV = CN[C@H](C(=O)O)C(C)C; NMeA = CN[C@@H](C)C(=O)O; Piperidide = C1CCN(*)CC1; Aib = CC(C)(N)C(=O)O; NPrGly = CCCNCC(=O)O; Sar = CNCC(=O)O; tBu = CC(C)(C)*
# What was measured:
# [1] = PAMPA (parallel artificial membrane permeability assay); type: in vitro ADME; settings: membrane permeation rate (Pe), 50 mM MOPSO buffer pH 6.5 with 5.0% glycocholic acid, 37° C., 18 hours; for Papp at 18 hours, 50 µM: PAMPA, read-out: iPAMPA Pe
# In short: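 Artificial membrane was 10% (w/v) egg lecithin plus 0.5% (w/v) cholesterol in dodecane on a PVDF filter. A 10 mM DMSO stock was added at 0.5% (v/v) to donor buffer (50 mM MOPSO, pH 6.5, 5.0% glycocholic acid). After 18 h at 37 °C, LC/MS or LC/UV gave donor and acceptor levels for Pe.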
# [2] = Metabolic stability in human hepatic microsome; type: in vitro ADME; settings: microsomes, pH 7.4; human hepatic microsome, NADPH(+); read-out: CL NADPH(+)
Compound,"Papp at 18 hours, 50 µM [1]",microsomal CLint at 1 uM [2],iPAMPA Pe [1]
CCCN1CC(=O)N(C)[C@@H](Cc2ccccc2)C(=O)N[C@@H](C)C(=O)N(C)[C@@H](Cc2ccccc2)C(=O)N(C)[C@@H](CC(C)C)C(=O)N(C)[C@@H]([C@@H](C)CC)C(=O)N(C)[C@@H](CC(C)C)C(=O)N[C@H](C(=O)N2CCCCC2)CC(=O)N(C)CC(=O)N[C@@H](CC(C)C)C(=O)N[C@@H]([C@@H](C)O)C1=O [DP-545] ([Sar]LT[NPrGly][NMeF]A[NMeF][NMeL][NMeI][NMeL]D-Piperidide; lactam N-11),40 ×10⁻⁶ cm/s,36 µL/min/mg,
CC[C@H](C)[C@H]1C(=O)N(C)[C@@H](CC(C)C)C(=O)N[C@H](C(=O)N2CCCCC2)CC(=O)N(C)CC(=O)N[C@@H](CC(C)C)C(=O)N[C@@H]([C@@H](C)O)C(=O)N(C)CC(=O)N(CC)[C@@H](Cc2ccccc2)C(=O)N[C@@H](C)C(=O)N(C)[C@@H](Cc2ccccc2)C(=O)N(C)[C@@H](CC(C)C)C(=O)N1C [DP-546] ([Sar]LT[Sar][NEtPhe]A[NMeF][NMeL][NMeI][NMeL]D-Piperidide; lactam N-11),41 ×10⁻⁶ cm/s,34 µL/min/mg,
CC(C)C[C@@H]1NC(=O)[C@H](CC(C)C)NC(=O)[C@H](C)N(C)C(=O)C[C@@H](C(=O)N2CCCCC2)NC(=O)[C@H](C(C)C)N(C)C(=O)[C@H](CC(C)C)NC(=O)[C@H](Cc2ccccc2)NC(=O)[C@H]([C@@H](C)O)NC(=O)CN(C)C(=O)[C@H](CC(C)C)NC(=O)C(C)(C)NC1=O [DP-560] ([NMeA]LL[Aib]L[Sar]TFL[NMeV]D-Piperidide; lactam N-11),26 ×10⁻⁶ cm/s,28 µL/min/mg,
CC(C)C[C@@H]1NC(=O)[C@H](CC(C)C)NC(=O)[C@H](C)N(C)C(=O)C[C@@H](C(=O)N2CCCCC2)NC(=O)[C@H](C(C)C)N(C)C(=O)[C@H](CC(C)C)NC(=O)[C@H](Cc2ccccc2)NC(=O)[C@H]([C@@H](C)O)NC(=O)CN(C)C(=O)[C@H](CC(C)C)NC(=O)[C@H](c2ccccc2)NC1=O [DP-561] ([NMeA]LL[Phg]L[Sar]TFL[NMeV]D-Piperidide; lactam N-11),24 ×10⁻⁶ cm/s,48 µL/min/mg,
CC(C)C[C@H]1C(=O)NCC(=O)N[C@H](C(=O)N2CCCCC2)CC(=O)N[C@@H](c2ccccc2)C(=O)N[C@@H]([C@@H](C)O)C(=O)N(C)[C@@H](C)C(=O)N(C)[C@@H](Cc2ccccc2)C(=O)N(C)[C@@H](Cc2ccccc2)C(=O)N[C@@H](COC(C)(C)C)C(=O)N1C [DP-563] ([Phg]T[NMeA][NMeF][NMeF]S(tBu)[NMeL]GD-Piperidide; lactam N-9),35 ×10⁻⁶ cm/s,111 µL/min/mg,
CC[C@H](C)[C@H]1C(=O)NCC(=O)N(C)[C@@H](CC(C)C)C(=O)N[C@@H]([C@@H](C)O)C(=O)N2CCC[C@H]2C(=O)NC(C)(C)C(=O)N[C@H](C(=O)N2CCCCC2)CC(=O)N(C)[C@@H](C)C(=O)N[C@@H](Cc2ccccc2)C(=O)N(C)[C@@H](CC(C)C)C(=O)N[C@@H](CC(C)C)C(=O)N1C [DP-564] ([NMeA]F[NMeL]L[NMeI]G[NMeL]TP[Aib]D-Piperidide; lactam N-11),27 ×10⁻⁶ cm/s,80 µL/min/mg,
CC(C)C[C@@H]1NC(=O)[C@H](Cc2ccccc2)N(C)C(=O)CN(C)C(=O)[C@H]([C@@H](C)O)NC(=O)[C@H](CC(C)C)N(C)C(=O)[C@H](C)NC(=O)C[C@@H](C(=O)N(C)[C@@H](Cc2ccccc2)C(=O)N(C)[C@@H](C)C(=O)N2CCC[C@H]2C(=O)N(C)[C@@H](Cc2ccccc2)C(=O)N[C@@H](C)C(=O)N2CCCCC2)NC1=O [DP-565] (A[NMeL]T[Sar][NMeF]LD[NMeF][NMeA]P[NMeF]A-Piperidide; lactam N-7),18 ×10⁻⁶ cm/s,56 µL/min/mg,
CC(C)C[C@@H]1NC(=O)[C@H](Cc2ccccc2)N(C)C(=O)CN(C)C(=O)[C@H]([C@@H](C)O)NC(=O)[C@H](CC(C)C)N(C)C(=O)[C@H](C)NC(=O)C[C@@H](C(=O)N(C)[C@@H](CC(C)C)C(=O)N[C@H](C(=O)N(C)[C@@H](C)C(=O)N[C@@H](C)C(=O)N2CCCCC2)C(C)C)NC1=O [DP-566] (A[NMeL]T[Sar][NMeF]LD[NMeL]V[NMeA]A-Piperidide; lactam N-7),11 ×10⁻⁶ cm/s,38 µL/min/mg,
CC[C@H](C)[C@H](NC(=O)[C@H](Cc1ccccc1)N(C)C(=O)[C@@H]1CC(=O)N[C@@H](C)C(=O)N(C)[C@@H](CC(C)C)C(=O)N[C@@H]([C@@H](C)O)C(=O)N(C)CC(=O)N(C)[C@@H](Cc2ccccc2)C(=O)N[C@@H](CC(C)C)C(=O)N1)C(=O)N1CCCCC1 [DP-567] (A[NMeL]T[Sar][NMeF]LD[NMeF]I-Piperidide; lactam N-7),30 ×10⁻⁶ cm/s,224 µL/min/mg,
CC[C@H](C)[C@@H]1NC(=O)[C@H](Cc2ccccc2)N(C)C(=O)[C@@H](C)NC(=O)C[C@@H](C(=O)N(C)[C@@H](CC(C)C)C(=O)NCC(=O)N(C)[C@@H](CC(C)C)C(=O)N[C@@H](C)C(=O)N2CCCCC2)NC(=O)[C@H](C(C)C)NC(=O)CN(C)C(=O)[C@H]([C@@H](C)O)NC1=O [DP-568] ([dA][NMeF]IT[Sar]VD[NMeL]G[NMeL]A-Piperidide; lactam N-7),4.4 ×10⁻⁶ cm/s,30 µL/min/mg,
CC[C@H](C)[C@@H]1NC(=O)[C@H](Cc2ccccc2)N(C)C(=O)[C@@H](C)NC(=O)C[C@@H](C(=O)N(C)[C@@H](Cc2ccccc2)C(=O)N(C)[C@@H](Cc2ccccc2)C(=O)N[C@@H](C)C(=O)N2CCCCC2)NC(=O)[C@H](C(C)C)NC(=O)CN(C)C(=O)[C@H]([C@@H](C)O)NC1=O [DP-569] ([dA][NMeF]IT[Sar]VD[NMeF][NMeF]A-Piperidide; lactam N-7),21 ×10⁻⁶ cm/s,203 µL/min/mg,
CC(C)C[C@H](NC(=O)CN(C)C(=O)[C@@H]1CC(=O)N[C@H](C)C(=O)N[C@@H](C(C)C)C(=O)N(C)[C@@H](Cc2ccccc2)C(=O)N(C)[C@@H](CC(C)C)C(=O)N(C)[C@@H](C)C(=O)N[C@@H]([C@@H](C)O)C(=O)N[C@@H](Cc2ccccc2)C(=O)N1)C(=O)N1CCCCC1 [DP-571] ([dA]V[NMeF][NMeL][NMeA]TFD[Sar]L-Piperidide; lactam N-8),23 ×10⁻⁶ cm/s,62 µL/min/mg,
CC[C@H](C)[C@H](NC(=O)[C@H](Cc1ccccc1)N(C)C(=O)[C@@H]1CC(=O)N[C@@H](C)C(=O)N[C@@H](CC(C)C)C(=O)N(C)[C@@H]([C@@H](C)CC)C(=O)N[C@@H](C(C)C)C(=O)N(C)[C@@H](Cc2ccccc2)C(=O)N[C@@H](CC(C)C)C(=O)N(C)[C@@H](Cc2ccccc2)C(=O)N1)C(=O)N1CCCCC1 [DP-573] (AL[NMeI]V[NMeF]L[NMeF]D[NMeF]I-Piperidide; lactam N-8),,72 µL/min/mg,1.0E−07
CC(C)C[C@@H]1NC(=O)[C@H](C)NC(=O)C[C@@H](C(=O)N(C)[C@@H](C)C(=O)N[C@H](C(=O)N(C)[C@@H](Cc2ccccc2)C(=O)N(C)[C@@H](CC(C)C)C(=O)N[C@@H](C)C(=O)N2CCCCC2)[C@@H](C)O)NC(=O)[C@H](Cc2ccccc2)N(C)C(=O)[C@H](CC(C)C)N(C)C(=O)[C@H](C)NC(=O)[C@H](Cc2ccccc2)N(C)C(=O)[C@H](CC(C)C)N(C)C1=O [DP-574] (AL[NMeL][NMeF]A[NMeL][NMeF]D[NMeA]T[NMeF][NMeL]A-Piperidide; lactam N-8),1.2 ×10⁻⁶ cm/s,113 µL/min/mg,
CC(C)C[C@@H](C(=O)N[C@@H](C)C(=O)N1CCCCC1)N(C)C(=O)[C@@H]1CC(=O)N[C@H](C(C)C)C(=O)N[C@@H]([C@@H](C)O)C(=O)N(C)[C@@H](C)C(=O)N(C)[C@@H](Cc2ccccc2)C(=O)N(C)[C@@H](Cc2ccccc2)C(=O)N[C@@H](COC(C)(C)C)C(=O)N(C)[C@@H](CC(C)C)C(=O)NCC(=O)N1 [DP-575] ([dV]T[NMeA][NMeF][NMeF]S(tBu)[NMeL]GD[NMeL]A-Piperidide; lactam N-9),28 ×10⁻⁶ cm/s,70 µL/min/mg,
CC[C@H](C)[C@H](NC(=O)[C@H](CC(C)C)N(C)C(=O)CN(C)C(=O)[C@@H]1CC(=O)N[C@H](C(C)C)C(=O)N[C@@H](C)C(=O)N[C@@H]([C@@H](C)O)C(=O)N(C)[C@@H](C)C(=O)N[C@@H](Cc2ccccc2)C(=O)N(C)[C@@H](CC(C)C)C(=O)N(C)[C@@H](Cc2ccccc2)C(=O)N(C)[C@@H](CC(C)C)C(=O)N1)C(=O)N1CCCCC1 [DP-576] ([dV]AT[NMeA]F[NMeL][NMeF][NMeL]D[Sar][NMeL]I-Piperidide; lactam N-9),15 ×10⁻⁶ cm/s,17 µL/min/mg,
CC(C)C[C@H](NC(=O)[C@@H](NC(=O)[C@@H]1CCCN1C(=O)[C@@H]1CC(=O)N[C@H](C)C(=O)N(C)[C@@H](C)C(=O)N(C)[C@@H](Cc2ccccc2)C(=O)N(C)[C@@H](CC(C)C)C(=O)N[C@@H]([C@@H](C)O)C(=O)N(C)CC(=O)N(C)[C@@H](CC(C)C)C(=O)N[C@@H](COC(C)(C)C)C(=O)N(C)[C@@H](CC(C)C)C(=O)N1)C(C)C)C(=O)N1CCCCC1 [DP-579] ([dA][NMeA][NMeF][NMeL]T[Sar][NMeL]S(tBu)[NMeL]DPVL-Piperidide; lactam N-10),24 ×10⁻⁶ cm/s,19 µL/min/mg,
CC[C@H](C)[C@@H]1NC(=O)[C@H](Cc2ccccc2)N(C)C(=O)[C@H](CC(C)C)NC(=O)[C@H](CC(C)C)NC(=O)[C@H](Cc2ccccc2)NC(=O)[C@H](CC(C)C)NC(=O)[C@@H](C)NC(=O)C[C@@H](C(=O)N(C)[C@@H](C)C(=O)N[C@@H](CC(C)C)C(=O)N[C@@H](C)C(=O)N[C@H](C(=O)N2CCCCC2)[C@@H](C)CC)NC(=O)[C@H](Cc2ccccc2)NC(=O)[C@H]([C@@H](C)O)NC1=O [DP-580] ([dA]LFLL[NMeF]ITFD[NMeA]LAI-Piperidide; lactam N-10),0.13 ×10⁻⁶ cm/s,54 µL/min/mg,

# — US9409952B2, “Peptide-compound cyclization method” (Chugai Seiyaku Kabushiki Kaisha, priority 2011, dated 2016)
